Results published in patent publication US20240360175A1, “PEPTIDE DERIVATIVES AND RELATED USES AS OREXIN AGONISTS” (Centessa Pharmaceuticals (UK) Limited, priority 2021, published 2024).
Numbered stars: 1 amine (or outer) side, 2 acyl side, 3 side chain; on linkers, the order of the positions; unused ones are H or OH. Square brackets hold non-standard residues; d marks the D form. Peptide text beside a SMILES is read from it. * marks the point of attachment. Malonyl(2,2-Me2,histaminyl) = CC(C)(C(=O)NCCc1cnc[nH]1)C(=O)*; Gly(N-CH2CH2(4-MeOPh)) = COc1ccc(CCNCC(=O)O)cc1; hArg(Et2) = CCN=C(NCC)NCCCC[C@H](N)C(=O)O; Phe(3-Br) = N[C@@H](Cc1cccc(Br)c1)C(=O)O; X1 = O=C(CN(CCc1ccc2ccccc2c1)[*:1])[*:2]; X2 = O=C([C@@H](N[*:1])c1cccc(O)c1)[*:2]; X6 = O=C(CN(CCc1cccc2ccccc12)[*:1])[*:2]; X3 = NCCc1cccc(CCN(CC(=O)[*:2])[*:1])c1; Gly(NCH2CH2Ph) = O=C(O)CNCCc1ccccc1; PEG6 = NCCOCCOCCOCCOCCOCCOCCC(=O)O; Hyp = O=C(O)[C@@H]1C[C@@H](O)CN1; Hpg = N[C@H](C(=O)O)c1ccc(O)cc1; NMeN = CN[C@@H](CC(N)=O)C(=O)O; X5 = COCCOCCOCCOCCOCCOCCC(=O)*; Aoc(2) = CCCCCC[C@H](N)C(=O)O; Phg = N[C@H](C(=O)O)c1ccccc1; Nle = CCCC[C@H](N)C(=O)O

What was measured:
[1] = target: T1, human orexin type 1 receptor (hOX1R) (Homo sapiens, UniProt O43613); assay: Measurement of orexin type 1 receptor agonist activity (FLIPR TETRA intracellular Ca2+ fluorescence); type: cell-based; settings: CHO cells expressing hOX1R; agonist activity, Ca2+ fluorescence; read-out: hOX1 pEC50 (converted)
T1 construct: expressed in transfected cells
T1 sequence (O43613 1-425): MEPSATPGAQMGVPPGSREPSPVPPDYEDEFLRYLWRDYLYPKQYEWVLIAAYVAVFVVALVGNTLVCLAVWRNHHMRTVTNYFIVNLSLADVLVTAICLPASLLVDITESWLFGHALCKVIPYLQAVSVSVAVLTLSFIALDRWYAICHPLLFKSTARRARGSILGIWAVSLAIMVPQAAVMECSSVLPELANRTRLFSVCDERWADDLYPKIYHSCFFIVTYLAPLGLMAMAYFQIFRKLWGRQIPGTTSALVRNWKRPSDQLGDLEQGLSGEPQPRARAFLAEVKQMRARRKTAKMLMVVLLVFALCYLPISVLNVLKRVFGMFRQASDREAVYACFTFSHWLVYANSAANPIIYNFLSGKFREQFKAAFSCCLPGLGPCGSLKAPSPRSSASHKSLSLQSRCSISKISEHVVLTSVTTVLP
Protocol: (§1) Stable cell line generation. Obtainment of cells stably expressing either human orexin type 2 or human orexin type 1 receptor: to obtain a stable cell line the Orexin receptor cDNA was inserted into pcDNA3.1(+) plasmid vector and clones identified by G418 drug resistance selection. […] A single clone for OX2R—CHO and OX1R—CHO were grown in bulk and frozen to generate a cell bank for routine screening.
(§2) Measurement of orexin type 1 receptor agonist activity. Chinese hamster ovary (CHO) cells expressing human orexin type 1 receptor (hOX1R) were seeded in each well of 384 well black clear bottom plates (BD Flacon) at 10,000 cells per well and cultured for 24 h in an Ham's F12 (Gibco) medium containing 10% fetal calf serum (Sigma Aldrich) under the conditions of 37° C., 5% CO2. After removal of the medium, 50 μL of assay buffer 1 (0.1% bovine serum albumin (Sigma Aldrich), 20 mM HEPES (Molecular Dimensions), […] probenecid (Sigma Aldrich), 1× Calcium 5 dye (Molecular Devices) in Hank's balanced salt solution (Invitrogen)) was added, and the cells were incubated for 60 min under the conditions of 37° C., 5% CO2. A test peptide was dissolved in dimethyl sulfoxide (Sigma Aldrich) to 1 mM, and then diluted with assay buffer 2 (20 mM HEPES, Hank's balanced salt solution, 0.1% bovine serum albumin). For the reaction, a test peptide solution (10 μl) was added using Fluorescent Imaging Plate Reader TETRA (FLIPR TETRA: manufactured by Molecular Devices), a fluorescence value (excitation wavelength 488 nm, measurement wavelength 570 nm) of each well was measured every one second for 2 min, and the agonist activity was determined using the area of the fluorescence value as an indicator of intracellular Ca^2+ concentration. The agonist activity of the test peptide was calculated assuming that the fluorescence value of the well added with only the dilution buffer was 0% and the fluorescence value of the well added with 10 nM human orexin A (Tocris) buffer was 100%. As used herein, Emax indicates the value at 1 μM concentration when orexin A is converted to a full agonist (maximum value of agonist activity: 100%).

[2] = target: T2, human orexin type 2 receptor (hOX2R) (Homo sapiens, UniProt O43614); assay: Measurement of orexin type 2 receptor agonist activity (FLIPR TETRA intracellular Ca2+ fluorescence); type: cell-based; settings: CHO cells expressing hOX2R; agonist activity, Ca2+ fluorescence; read-out: hOX2 pEC50 (converted)
T2 construct: expressed in transfected cells
T2 sequence (O43614 1-444): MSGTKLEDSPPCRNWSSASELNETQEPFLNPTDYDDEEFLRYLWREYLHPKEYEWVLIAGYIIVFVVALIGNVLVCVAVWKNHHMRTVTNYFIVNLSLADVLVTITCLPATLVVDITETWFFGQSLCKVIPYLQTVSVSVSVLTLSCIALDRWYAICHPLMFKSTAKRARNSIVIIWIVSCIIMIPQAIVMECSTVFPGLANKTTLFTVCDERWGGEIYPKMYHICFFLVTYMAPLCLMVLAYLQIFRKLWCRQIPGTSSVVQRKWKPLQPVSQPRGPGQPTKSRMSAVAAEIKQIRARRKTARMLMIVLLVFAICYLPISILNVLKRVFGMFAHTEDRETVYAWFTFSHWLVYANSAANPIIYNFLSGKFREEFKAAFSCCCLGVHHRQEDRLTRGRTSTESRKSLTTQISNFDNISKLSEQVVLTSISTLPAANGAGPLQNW
Protocol: as §1
as §2, with “type 2” for “type 1”, “receptor (hOX2R)” for “receptor (hOX1R) were”

Row | SMILES | EC50 [1] | EC50 [2]
1 | CC[C@H](C)[C@H](NC(=O)CNC(=O)[C@@H](NC(=O)[C@H](C)NC(=O)[C@@H]1C[C@@H](O)CN1C(=O)[C@H](CC(N)=O)NC(=O)CN(CCc1ccc2ccccc2c1)C(=O)[C@@H](N)CCCNC(=N)N)c1ccccc1)C(=O)N[C@@H](CC(C)C)C(=O)N[C@H](C(=O)N[C@@H](Cc1cccc(Br)c1)C(N)=O)[C@@H](C)O [Peptide 13] (H-R[X1]N[Hyp]A[Phg]GILT[Phe(3-Br)]-NH2) | 1 to 10 nM | < 0.1 nM
2 | CCCCCC[C@H](NC(=O)[C@@H](NC(=O)[C@H](CC(C)C)NC(=O)[C@@H](NC(=O)CNC(=O)[C@@H](NC(=O)[C@H](C)NC(=O)[C@@H]1C[C@@H](O)CN1C(=O)[C@H](CC(N)=O)NC(=O)CN(CCc1ccccc1)C(=O)[C@@H](N)CCCNC(=N)N)c1ccccc1)[C@@H](C)CC)[C@@H](C)O)C(N)=O [Peptide 14] (H-R[Gly(NCH2CH2Ph)]N[Hyp]A[Phg]GILT[Aoc(2)]-NH2; N-terminus assumed) | > 10 nM | < 0.1 nM
3 | CCCCCC[C@H](NC(=O)[C@@H](NC(=O)[C@H](CC(C)C)NC(=O)[C@@H](NC(=O)CNC(=O)[C@@H](NC(=O)[C@H](C)NC(=O)[C@@H]1C[C@@H](O)CN1C(=O)[C@H](CC(N)=O)NC(=O)CN(CCc1ccccc1)C(=O)[C@H](CCCCN/C(=N/CC)NCC)NC(=O)C(C)(C)C(=O)NCCc1cnc[nH]1)c1ccccc1)[C@@H](C)CC)[C@@H](C)O)C(N)=O [Peptide 15] ({Malonyl(2,2-Me2,histaminyl)}-[hArg(Et2)][Gly(NCH2CH2Ph)]N[Hyp]A[Phg]GILT[Aoc(2)]-NH2) | > 10 nM | < 0.1 nM
4 | CC[C@H](C)[C@H](NC(=O)CNC(=O)[C@@H](NC(=O)[C@H](C)NC(=O)[C@@H]1C[C@@H](O)CN1C(=O)[C@H](CC(N)=O)NC(=O)CN(CCc1cccc2ccccc12)C(=O)[C@@H](N)CCCNC(=N)N)c1ccccc1)C(=O)N[C@@H](CC(C)C)C(=O)N[C@H](C(=O)N[C@@H](Cc1cccc(Br)c1)C(N)=O)[C@@H](C)O [Peptide 16] (H-R[X6]N[Hyp]A[Phg]GILT[Phe(3-Br)]-NH2) | 1 to 10 nM | < 0.1 nM
5 | CCCCCC[C@H](NC(=O)[C@@H](NC(=O)[C@H](CC(C)C)NC(=O)[C@@H](NC(=O)CNC(=O)[C@@H](NC(=O)[C@H](C)NC(=O)[C@H](Cc1c[nH]cn1)NC(=O)[C@H](CC(N)=O)NC(=O)CN(CCc1ccccc1)C(=O)[C@@H](N)CCCCN/C(=N/CC)NCC)c1cccc(O)c1)[C@@H](C)CC)[C@@H](C)O)C(N)=O [Peptide 17] (H-[hArg(Et2)][Gly(NCH2CH2Ph)]NHA[X2]GILT[Aoc(2)]-NH2) | > 10 nM | < 0.1 nM

Other lines, results leading:

Row | EC50 [1] | EC50 [2] | SMILES
6 | > 10 nM | < 0.1 nM | CCCCCC[C@H](NC(=O)[C@@H](NC(=O)[C@H](CC(C)C)NC(=O)[C@@H](NC(=O)CNC(=O)[C@@H](NC(=O)[C@H](C)NC(=O)[C@H](Cc1c[nH]cn1)NC(=O)[C@H](CC(N)=O)NC(=O)CN(CCc1ccc(OC)cc1)C(=O)[C@@H](N)CCCCN/C(=N/CC)NCC)c1ccccc1)[C@@H](C)CC)[C@@H](C)O)C(N)=O [Peptide 18] (H-[hArg(Et2)][Gly(N-CH2CH2(4-MeOPh))]NHA[Phg]GILT[Aoc(2)]-NH2)
7 | > 10 nM | < 0.1 nM | CCCCCC[C@H](NC(=O)[C@@H](NC(=O)[C@H](CC(C)C)NC(=O)[C@@H](NC(=O)CNC(=O)[C@@H](NC(=O)[C@H](C)NC(=O)[C@@H]1C[C@@H](O)CN1C(=O)[C@H](CC(N)=O)N(C)C(=O)CN(CCc1cccc(CCN)c1)C(=O)[C@@H](N)CCCNC(=N)N)c1ccccc1)[C@@H](C)CC)[C@@H](C)O)C(N)=O [Peptide 19] (H-R[X3][NMeN][Hyp]A[Phg]GILT[Aoc(2)]-NH2)
8 | > 10 nM | < 0.1 nM | CCCCCC[C@H](NC(=O)[C@@H](NC(=O)[C@H](CC(C)C)NC(=O)[C@@H](NC(=O)CNC(=O)[C@@H](NC(=O)[C@H](C)NC(=O)[C@H](Cc1c[nH]cn1)NC(=O)[C@H](CC(N)=O)NC(=O)CN(CCc1ccccc1)C(=O)[C@@H](N)CCCCN/C(=N/CC)NCC)c1ccc(O)cc1)[C@@H](C)CC)[C@@H](C)O)C(N)=O [Peptide 20] (H-[hArg(Et2)][Gly(NCH2CH2Ph)]NHA[Hpg]GILT[Aoc(2)]-NH2)
9 | > 10 nM | < 0.1 nM | CCCC[C@H](NC(=O)[C@@H](NC(=O)[C@H](CC(C)C)NC(=O)[C@@H](NC(=O)CNC(=O)[C@@H](NC(=O)[C@H](C)NC(=O)[C@H](Cc1c[nH]cn1)NC(=O)[C@H](CC(N)=O)NC(=O)CN(CCc1ccccc1)C(=O)[C@H](CCCNC(=N)N)NC(=O)CCOCCOCCOCCOCCOCCOCCN)c1ccccc1)[C@@H](C)CC)[C@@H](C)O)C(N)=O [Peptide 21] (H-[PEG6]R[Gly(NCH2CH2Ph)]NHA[Phg]GILT[Nle]-NH2)
10 | > 10 nM | < 0.1 nM | CCCCCC[C@H](NC(=O)[C@@H](NC(=O)[C@H](CC(C)C)NC(=O)[C@@H](NC(=O)CNC(=O)[C@@H](NC(=O)[C@H](C)NC(=O)[C@@H]1C[C@@H](O)CN1C(=O)[C@H](CC(N)=O)NC(=O)CN(CCc1ccccc1)C(=O)[C@H](CCCNC(=N)N)NC(=O)CCOCCOCCOCCOCCOCCOC)c1ccccc1)[C@@H](C)CC)[C@@H](C)O)C(N)=O [Peptide 22] (X5-R[Gly(NCH2CH2Ph)]N[Hyp]A[Phg]GILT[Aoc(2)]-NH2)
11 | > 10 nM | < 0.1 nM | CCCCCC[C@H](NC(=O)[C@@H](NC(=O)[C@H](CC(C)C)NC(=O)[C@@H](NC(=O)CNC(=O)[C@@H](NC(=O)[C@H](C)NC(=O)[C@H](CCC(N)=O)NC(=O)[C@H](CC(N)=O)NC(=O)CN(CCc1ccccc1)C(=O)[C@@H](N)CCCCN/C(=N/CC)NCC)c1ccc(O)cc1)[C@@H](C)CC)[C@@H](C)O)C(N)=O [Peptide 23] (H-[hArg(Et2)][Gly(NCH2CH2Ph)]NQA[Hpg]GILT[Aoc(2)]-NH2)
12 | > 10 nM | < 0.1 nM | CCCCCC[C@H](NC(=O)[C@@H](NC(=O)[C@H](CC(C)C)NC(=O)[C@@H](NC(=O)CNC(=O)[C@@H](NC(=O)[C@H](C)NC(=O)[C@H](Cc1c[nH]cn1)NC(=O)[C@H](CC(N)=O)NC(=O)CN(CCc1ccccc1)C(=O)[C@@H](N)CCCCNC(=NCC)NCC)c1ccccc1)[C@@H](C)CC)[C@@H](C)O)C(N)=O [Peptide 24] (H-[hArg(Et2)][Gly(NCH2CH2Ph)]NHA[Phg]GILT[Aoc(2)]-NH2; N-terminus assumed)
